According to patent publication US20090221522A1, “METHODS TO CORRECT GENE SET EXPRESSION PROFILES TO DRUG SENSITIVITY” (The Johns Hopkins University, priority 2008, published 2009):

Key:
[1] = tested on: Resectable Pancreatic Adenocarcinoma; experiment: Disease free survival after adjuvant gemcitabine; assay type: in vivo, human
Description: Statistical analysis was performed using software SPSS version 16 (SPSS Inc., Chicago, Ill.). P-values <0.05 were regarded as significant. Disease free survival (DFS) was analyzed using the Kaplan-Meier method and compared with the log-rank test.
The connectivity concept of the present invention can be used with actual patient profiles. Patients were recruited under the Phase II Study of an Individualized Drug Treatment Selection Process Based on a Tumor Xenograft Model for Patients with Resectable Pancreatic Adenocarcinoma (JHOC-J0507 JHOC-05041402, NCT00276744). All patients signed the informed consent of this trial. Twenty-four of the patients with complete follow-up data were included in this study. Direct-patient xenograft cases from the PancXenoBank, Rubio-Viqueira B, Jimeno A, Cusatis G, et al: An In vivo Platform for Translational Drug Development in Pancreatic Cancer. Clin Cancer Res 12:4652-4661, 2006, were also used.
The mean age of diagnosis for these patients is 65 years (range from 41 to 81 years). All patients received gemcitabine as adjuvant chemotherapy. Herrmann R, Bodoky G, Ruhstaller T, et al: Gemcitabine Plus Capecitabine Compared With Gemcitabine Alone in Advanced Pancreatic Cancer: A Randomized, Multicenter, Phase III Trial of the Swiss Group for Clinical Cancer Research and the Central European Cooperative Oncology Group. […] Cancer 85:1261-1268, 1999. […] See Oettle H, Post S, Neuhaus P, et al: Adjuvant Chemotherapy with Gemcitabine vs. Observation in Patients Undergoing Curative-Intent Resection of Pancreatic Cancer: A Randomized Controlled Trial. JAMA 297:267-277, 2007. The median DFS for these patients was 291 days.
Using the methods of the present invention, where a patient is connected to a sensitive cell line, the patient will be predicted as sensitive to gemcitabine and vice versa. This approach achieved an overall prediction accuracy of 71% on these retrospective patient samples. […] The positive predicted value and negative predicted value are 73% and 69%, respectively. […]

pancreatic cancer = conditions: cited from earlier work

SMILES: Nc1ccn([C@@H]2O[C@H](CO)[C@@H](O)C2(F)F)c(=O)n1 [gemcitabine]
- median DFS ([1]; all 24 patients, gemcitabine as adjuvant chemotherapy): 291 days
- median DFS ([1]; predicted gemcitabine resistant group): 162 days
- median DFS ([1]; predicted gemcitabine sensitive group): 491 days
- patients who benefit from this therapy (pancreatic cancer; first-line): ~20%
- response rate (pancreatic cancer; pancreatic cancer patients): less than 20%
